Here are results for twelve molecules from US6541463B1, “Inhibitors of type 5 and type 3 17β-hydroxysteroid dehydrogenase and methods for their use” (Endorecherche, Inc., priority 1998, dated 2003).

The IC50 is the concentration at which inhibition is half-maximal.

The subject of assay [1] is ZR-75-1 cells. The assay is described as follows: Estrogenic activity: stimulation of proliferation of ZR-75-1 cells. Particulars: Table 4′. The assay is classed as cell-based, human. As for the experimental part: […] The manner in which the stimulation is determined is described in “Other Tests; C-Estrogenic/Antiestrogenic activity” Lower numbers are desirable. ND means that a determination was not done.
(§1) Estrogenic/antiestrogenic activity of some preferred compounds has been measured using the […] human breast cancer cell line as described in more detail below.
(§2) All media and medium supplments were purchased from Sigma. Cells were subcultured weekly by treatment with a pancreatic solution containing EDTA (0.2 g/L). The cell cultures used for the experiments herein describied were between passages 89 and 94.
(§3) Cells in their logarithmic growth phase were harvested, briefly centrifuged, and resuspended in RPMI 1640. Cells were then plated in triplicate in LIMBRO 24-well plastic culture plates (2 cm^2/well). Since plating density influences the effect of hormones on ZR-75-1 cell growth, cells were plated at a density of 1×10^4 cells/well. […] Control cultures received the ethanol vehicle only. Cells were then allowed to grow at 37° C. for 10 days with medium changes (of identical composition) every 2 days.
(§4) After E2 and/or antiestrogen treatment, cells were harvested by addition of 0.5 ml of a pancreatin solution (Sigma) for 5-10 min at 37° C. before addition of 0.5 mnl of RPMI 1640 containing 5% dextran coated […] bovine serum in order to block enzymatic action. Cell number (0.10 ml aliquot) was determined by measurement of DNA content as previously described (Simard et al., Endocrinology 126: 3223-3231,1990).

Assay [2] has as its system ZR-75-1 cells. The assay is described as follows: Antiestrogenic activity: inhibition of E2-induced proliferation of ZR-75-1 cells. Particulars: for ZR-75-1 Activity, E2 3E^−8: Table 4′, E2-induced proliferation. In kind it is cell-based, human. As for the experimental part: The manner in which the inhibition is determined is described in “Other Tests; C-Estrogenic/Antiestrogenic Activity”. Lower numbers are desirable. ND means that a determination was not done.
as §1, §2, §3, §4

The target of assay [3] is T1, human type 2 17β-hydroxysteroid dehydrogenase (Homo sapiens, UniProt P37059).
T1 construct: expressed in transfected cells; host or cells: 293 cells, transient transfection; microsomal fraction (100 000×g pellet)
T1 sequence (P37059 1-387): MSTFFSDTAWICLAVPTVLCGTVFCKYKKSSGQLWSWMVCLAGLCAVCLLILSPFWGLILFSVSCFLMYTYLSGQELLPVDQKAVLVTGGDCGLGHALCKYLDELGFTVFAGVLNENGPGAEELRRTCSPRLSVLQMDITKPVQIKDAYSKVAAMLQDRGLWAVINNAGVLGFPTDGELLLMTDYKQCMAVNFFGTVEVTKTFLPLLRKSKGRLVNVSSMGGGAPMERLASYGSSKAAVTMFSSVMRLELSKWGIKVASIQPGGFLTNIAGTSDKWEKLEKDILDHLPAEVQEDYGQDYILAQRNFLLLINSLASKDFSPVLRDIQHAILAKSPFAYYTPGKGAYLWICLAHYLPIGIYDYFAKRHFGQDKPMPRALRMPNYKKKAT
The assay is described as follows: Enzymatic assay for type 2 17β-HSD. The settings on record: Table 4′; for inhibition: bracketed values, 3 · 10^−8M, read-out: Inhibition Type 2 17β-HSD Activity [% Inh. at 3 · 10^−8M]; for IC50: read-out: Inhibition Type 2 17β-HSD Activity IC50. The assay is classed as biochemical. A digest of the protocol:
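Enzymes from transiently transfected 293 cells (cytosol for type 1, microsomes for types 2 and 3 17β-HSD) were incubated 1 h at 37° C in pH 7.4 phosphate/20% glycerol with 2 mM NADPH or NAD+ and 0.1 μM 14C-substrate (estrone, 4-dione, or DHT for 3α-HSD); metabolites quantified by TLC; preliminary % inhibition at 3.10^−6M.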

Where only a bound is given, the exact number is not on record here.

Turning to `COCCOc1ccc2c(c1)CCC1C2CCC2(C)C1CCC21CCC(C)(C)C(=O)O1` [EM-1368-CS, 3-Methoxyethoxy-1,3,5(10)-estratrien-17(R)-spiro-2′-(5′,5′-dimethyl-6′-oxo)-tetrahydropyran], in the assay with ZR-75-1 cells [1], the “ZR-75-1 Activity, Basal E^−6” value is “+15%” and the “ZR-75-1 Activity, Basal E^−8” value amounted to 0%. For the same molecule, the “ZR-75-1 Activity, E2 3E^−8” value in the assay with ZR-75-1 cells [2] was found to be 0%. Also, in assay [3], the inhibition was 73%.
As to `CCOc1ccc2c(c1)CCC1C2CC[C@@]2(C)C1CC[C@@]21CCC(C)(C)C(=O)O1` (stereo partly drawn) [EM-1369, 3-Ethoxy-1,3,5(10)-estratrien-17(R)-spiro-2′-(5′,5′-dimethyl-6′-oxo)-tetrahydropyran], in the assay on ZR-75-1 cells [1], the “ZR-75-1 Activity, Basal E^−6” value is listed as “+84%” and the “ZR-75-1 Activity, Basal E^−8” value was found to be 0%. In the assay on ZR-75-1 cells [2], the “ZR-75-1 Activity, E2 3E^−8” value is recorded as “+18%”. For the same molecule, the inhibition in assay [3] amounted to 62%.
For `COc1ccc2c(c1)CCC1C2CCC2(C)C1CCC21CCC(C)(C)C(=O)O1` (stereo not shown) [EM-1370], in that order: “+24%”, 0%, 0% and 33%.
As for `COCCOc1cc2c(cc1Cl)C1CCC3(C)C(CCC34CCC(C)(C)C(=O)O4)C1CC2` (stereo not shown) [EM-1371-CS], in the assay on ZR-75-1 cells [1], the “ZR-75-1 Activity, Basal E^−6” value is “+137%” and the “ZR-75-1 Activity, Basal E^−8” value was determined as 0%. The “ZR-75-1 Activity, E2 3E^−8” value in the assay on ZR-75-1 cells [2] turned out to be 0%. Also, in assay [3], the half-inhibitory concentration (IC50) is > 10 µM.
With `COc1ccc2c(c1)C(=O)CC1C3CCC4(CCC(C)(C)C(=O)O4)C3(C)CCC21O` (stereo not shown) [EM-1386], in the assay on ZR-75-1 cells [1], the “ZR-75-1 Activity, Basal E^−6” value is recorded as −12% and the “ZR-75-1 Activity, Basal E^−8” value is given as 0%. In addition, the “ZR-75-1 Activity, E2 3E^−8” value in the assay with ZR-75-1 cells [2] worked out at 0%. Further, in assay [3], the IC50 was > 10 µM.
Regarding `COCCOc1cc2c(cc1C#N)C1CC[C@@]3(C)C(CC[C@@]34CCC(C)(C)C(=O)O4)C1CC2` (stereo partly shown) [EM-1396], in the assay with ZR-75-1 cells [1], the “ZR-75-1 Activity, Basal E^−6” value worked out at 0% and the “ZR-75-1 Activity, Basal E^−8” value came to 0%. Further, the “ZR-75-1 Activity, E2 3E^−8” value in the assay on ZR-75-1 cells [2] is reported as “+12%”. Further, in assay [3], the IC50 was > 10 µM.
Turning to `COCCOc1cc2c(cc1C(=O)OC)C1CC[C@@]3(C)C(CC[C@@]34CCC(C)(C)C(=O)O4)C1CC2` (stereo partly drawn) [EM-1402-CS, 2-Carbomethoxy-3-(2″-methoxyethyloxy)-1,3,5(10)-estratrien 17(R)-spiro-2′-(5′,5′-dimethyl-6′-oxo)tetrahydropyran], in the assay with ZR-75-1 cells [1], the “ZR-75-1 Activity, Basal E^−6” value is −10% and the “ZR-75-1 Activity, Basal E^−8” value was found to be 0%. Also, in the assay with ZR-75-1 cells [2] (Homo sapiens, ZR-75-1, 10^−6 M inhibitor, negative number = stimulation reduced, read-out: percentage of inhibition of E2-induced proliferation of ZR-75-1 cells), the inhibition at 1 µM worked out at 61%. Besides, in the assay with ZR-75-1 cells [2], the “ZR-75-1 Activity, E2 3E^−8” value was 0%. The IC50 in assay [3] was > 10 µM.
Take `CC1(C)CC[C@@]2(CCC3C4CCc5cc(C(N)=O)ccc5C4CCC32C)OC1=O` (stereo partly shown) [EM-1404]: in the assay with ZR-75-1 cells [1], the “ZR-75-1 Activity, Basal E^−6” value came to 0% and the “ZR-75-1 Activity, Basal E^−8” value is recorded as 0%. For the same molecule, the “ZR-75-1 Activity, E2 3E^−8” value with ZR-75-1 cells [2] amounted to 0%. Besides, the 50% inhibitory concentration (IC50) in assay [3] was > 10 µM.
Consider `COCCOc1cc2c(cc1C(N)=O)C1CC[C@@]3(C)C(CC[C@@]34CCC(C)(C)C(=O)O4)C1CC2` (stereo partly drawn) [EM-1424, 2-Carbamoyl-3-(2″-methoxyethyloxy)-1,3,5(10)-estratrien 17(R)-spiro-2′-(5′,5′-dimethyl-6′-oxo)tetrahydropyran], for which, in the assay on ZR-75-1 cells [1], the “ZR-75-1 Activity, Basal E^−6” value worked out at 0% and the “ZR-75-1 Activity, Basal E^−8” value is recorded as 0%. For the same molecule, the “ZR-75-1 Activity, E2 3E^−8” value in the assay with ZR-75-1 cells [2] is reported as −11%. The IC50 in assay [3] is > 10 µM.
For `CC1CC(=O)OC2(CCC3C4CCc5cc(O)ccc5C4CCC32C)C1` [PB-132-142, 3-Hydroxy-1,3,5(10)-estratrien-17(R)-spiro-2′-(4′-methyl-6′-oxo)tetrahydropyran], in the assay with ZR-75-1 cells [1], the “ZR-75-1 Activity, Basal E^−6” value is reported as 91% and the “ZR-75-1 Activity, Basal E^−8” value is on record as 38%. In addition, the “ZR-75-1 Activity, E2 3E^−8” value in the assay on ZR-75-1 cells [2] is listed as 0%. In addition, the inhibition in assay [3] came out at 69%.
`COC(=O)C1CCC2(CCC3C4CCc5cc(O)ccc5C4CCC32C)OC1=O` [PB-132-146, 3-Hydroxy-1,3,5(10)-estratrien-17(R)-2′-(5′-methoxycarbonyl-6′-oxo)tetrahydropyran]: in the assay with ZR-75-1 cells [1], the “ZR-75-1 Activity, Basal E^−6” value is 91% and the “ZR-75-1 Activity, Basal E^−8” value is 0%. The “ZR-75-1 Activity, E2 3E^−8” value in the assay on ZR-75-1 cells [2] was found to be 0%. Moreover, the inhibition in assay [3] was found to be 75%.
As for `C=CCC1CCC2(CCC3C4CCc5cc(O)ccc5C4CCC32C)OC1=O` [PB-132-152, 3-Hydroxy-1,3,5(10)-estratrien-17(R)-2′-(5′-allyl-6′-oxo)tetrahydropyran], in the assay with ZR-75-1 cells [1], the “ZR-75-1 Activity, Basal E^−6” value is given as 90% and the “ZR-75-1 Activity, Basal E^−8” value is 39%. For the same molecule, in the assay on ZR-75-1 cells [2], the “ZR-75-1 Activity, E2 3E^−8” value is reported as −11%. The inhibition in assay [3] worked out at 50%.
